The subject of test [1] is Pseudomonas aeruginosa (ATCC 15442) biofilm. Briefly: MBEC biofilm eradication test (Calgary biofilm device). Format: cell-based. The following applies: one-hour biocide contact time; for MBEC (minimum biofilm eradication concentration): individual determinations. The source says:
Table 45 summarizes test results performed at MBEC Biofilm Technologies, Inc., Calgary, Canada on the effectiveness of various biocides on biofilm removal. The test procedure, developed at the University of Calgary, utilizes a device which allows the growth of 96 identical biofilms under carefully controlled conditions. The device consists of a two-part vessel comprised of an upper plate containing 96 pegs that seals against a bottom plate. The bottom plate can consist of either a trough (for biofilm growth) or a standard 96-well plate (for biocide challenge). The biofilms develop on the 96 pegs. The device has been used as a general method for evaluating the efficacy of antibiotics and biocides towards biofilms. See in this connection H. Ceri, et al., “The MBEC Test: A New In Vitro Assay Allowing Rapid Screening for Antibiotic Sensitivity of Biofilm”, Proceedings of the ASM, 1998, 89, 525; Ceri, et al., “Antifungal and Biocide Susceptibility testing of Candida Biofilms using the MBEC Device”, Proceedings of the Interscience Conference on Antimicrobial Agents and Chemotherapy, 1998, 38, 495; and H. Ceri, et al., “The Calgary Biofilm Device: A New Technology for the Rapid Determination of Antibiotic Susceptibility of Bacterial Biofilms”, Journal of Clinical Microbiology, 1999, 37, 1771-1776.
Six biocide systems were evaluated using the above test procedure and test equipment. Five of these systems were oxidizing biocides, viz., chlorine (from NaOCl), halogen (from NaOCl+NaBr), halogen (from BCDMH), bromine (from DBDMH), and chlorine (from trichloroisocyanuric acid), all expressed as bromine as Br2 in mg/L, so that all test results were placed on the same basis. The sixth biocide was glutaraldehyde, a non-oxidizing biocide.
These biocide systems were used to challenge biofilms of Pseudomonas aeruginosa (ATCC 15442). This is a Gram (−) bacterium which is ubiquitous in microbiological slimes found in many water systems. See in this connection J. W. Costerton and H. Anwar, “Pseudomonas aeruginosa: The Microbe and Pathogen”, in Pseudomonas aeruginosa Infections and Treatment, A. L. Baltch and R. P. Smith editors, Marcel Dekker publishers, New York, 1994. In the field of poultry processing, S. Notermans, J. Dormans, and G. C. Mead, Biofouling, 1991, Vol. 5, pages 21-36, report observation of biofilms in poultry slaughter houses by use of scanning electron microscopy.
In Table 45 the MBEC (minimum biofilm eradication concentration) results presented are for the one-hour biocide contact time used in the test. The values given for the halogen containing biocides are expressed in terms of mg/L of bromine as Br2. The data on the glutaraldehyde is in terms of mg/L as active ingredient. […] In fact, only slightly more than one-half as much bromine from DBDMH was required to remove the biofilm as compared to the total halogen, expressed as Br2, that was required from BCDMH.

Test [2] relates to total bacteria (S. sonnei, L. monocytogenes, E. coli, S. enteritidis, P. aeruginosa, C. jejuni). Briefly: Total bacteria reduction from control over 20-day storage (Example 4). Format: cell-based. The following applies: pH 8. The protocol: A study was conducted to determine the effect of Clorox® bleach, and 1,3-dibromo-5,5-dimethylhydantoin (DBDMH) on carcass bacteria residual after 1.5 hour in a chill tank solution and spoilage 20-day shelf life longevity (caused by bacteria contamination). Tests were conducted at pH 8 (adjusted by trisodium phosphate). Skin pigmentation (Minolta Color Meter L value or Lightness, a value or redness and b value or yellowness) were determined before and post-processing.
In general the study involved normal processing of 56-day-old birds, immersing carcasses first in a warm bath containing 10^4 per mL Escherichia coli, 10^4 per mL Salmonella enteritidis, 10^4 per mL Pseudomonas aeruginosa, 10^4 per mL Campylobacter jejuni, and 10^4 per mL spoilage bacteria each from […] strains (Listeria monocytogenes and Shigella sonnei). Carcass were then immersed in a chill tank “soup”, containing normal organic fluids (blood, fat, skin, and meat particles) and containing various disinfectants (termed test materials).
A DBDMH stock solution and test solutions, a bacteria stock solution, and a “chicken soup” were prepared as in Example 3. In addition, the bacterial broth treatments, the whole bird wash sampling procedure, and the methodologies used for quantitative or qualitative determinations for bacterial organisms were conducted as in Example 3.
In greater detail the trial events and experimental design used in this group of tests were as follows: • a) Test microorganisms used were: • Escherichia coli ATCC 11229 • Pseudomonas aeruginosa ATCC 15442 • Salmonella enteritidis ATCC 13076 • Shigella sonnei ATCC 9290 • Listeria monocytogenes ATCC 7644 • Campylobacter jejuni ATCC 29428 • b) Test Procedure: All test strains were grown individually at 35° C. for 24 hours in the media specified in Table 12. Cells were harvested by centrifugation at 10,000×g for 10 minutes and washed twice with Butterfield's Phosphate Buffer (BPB of pH 7.2). Cells were resuspended in BPB to obtain a cell suspension of approximately 1.0×10^8 CFU/mL for each microorganism. The target inoculum levels were approximately 10^6 CFU/mL in the final test solutions. In the cases of S. enteritidis and P. aeruginosa the species were washed by pouring into prepared sterile centrifuge tubes with cheesecloth filters. The culture was then pelleted and washed using above techniques and repeated 3 times. • c) The birds (56 days old) were processed under normal commercial conditions. • d) The bacteria were added to a large batch of the “chicken soup”, and then aliquots of the resultant mixture were distributed equally among the chill waters used for each test. Then the particular disinfectant composition under test was added to one of the chill waters. […]

“And” between values parts separate entries of the source, which are not always exact repeats. Equal values may be shown once.

In the case of `CC1(C)C(=O)N(Cl)C(=O)N1Br` [BCDMH, N,N′-bromochloro-5,5-dimethylhydantoin], in test [1], the “MBEC, avg.” value is listed as 2.5 mg/L of bromine as Br2 and the “MBEC (minimum biofilm eradication concentration)” value is 2.5, 2.5 mg/L of bromine as Br2.

Consider `CC1(C)C(=O)N(Br)C(=O)N1Br` [DBDMH, 1,3-dibromo-5,5-dimethylhydantoin], for which the “Percentage of Total Bacteria Reduction From Control (Mean % Reduction From Control)” value (“Percentage … (Mean % Reduction From Control)” below) in test [2] (Day 0 post-processing, 10 ppm) was 77.8%; in test [2] (Day 0 post-processing, 20 ppm) it was 99.5%; in test [2] (Day 2 post-processing, 10 ppm), 77.3%; in test [2] (Day 2 post-processing, 20 ppm), 99.4%; in test [2] (Day 4 post-processing, 10 ppm), 76.8%; in test [2] (Day 4 post-processing, 20 ppm) it was 99.2%. Besides, the “Percentage … (Mean % Reduction From Control)” value in test [2] (Day 6 post-processing, 10 ppm) was 77.1%; in test [2] (Day 6 post-processing, 20 ppm), 98.5%; in test [2] (Day 8 post-processing, 10 ppm), 74.6%; in test [2] (Day 8 post-processing, 20 ppm), 97.3%; in test [2] (Day 10 post-processing, 10 ppm), 71.9%; in test [2] (Day 10 post-processing, 20 ppm) it was 95.1%. Further, the “Percentage … (Mean % Reduction From Control)” value in test [2] (Day 12 post-processing, 10 ppm) stood at 69.2%; in test [2] (Day 12 post-processing, 20 ppm), 91.2%; in test [2] (Day 14 post-processing, 10 ppm), 66.2%; in test [2] (Day 14 post-processing, 20 ppm) it was 84.3%; in test [2] (Day 16 post-processing, 10 ppm) it was 61.9%; in test [2] (Day 16 post-processing, 20 ppm), 71.2%. For the same molecule, the “Percentage … (Mean % Reduction From Control)” value in test [2] (Day 18 post-processing, 10 ppm) worked out at 58.5%; in test [2] (Day 18 post-processing, 20 ppm), 68.0%; in test [2] (Day 20 post-processing, 10 ppm), 53.7%; in test [2] (Day 20 post-processing, 20 ppm) it was 67.2%. In addition, the “MBEC, avg.” value in test [1] is on record as 1.4 mg/L of bromine as Br2. Moreover, in test [1], the “MBEC (minimum biofilm eradication concentration)” value was 1.4 mg/L of bromine as Br2 and 1.4, 1.4 mg/L of bromine as Br2.
